In US20130261173A1, “CYCLODEXTRIN-BASED POLYMERS FOR THERAPEUTIC DELIVERY” (CERULEAN PHARMA INC., priority 2009, published 2013):
Values joined by “and” are separate entries in the source; they are usually repeats but may differ in a detail not shown here. Equal entries are not always repeated. Where two headings read alike, the source gives them in different places.

Experiments:
B16.F10 cells [1] = experiment: CellTiter-Glo Luminescent Cell Viability Assay (cytotoxicity); assay type: cell-based, murine
Description: To measure the cytotoxic effect of CDP-linker-docetaxel compounds, the CellTiter-Glo Luminescent Cell Viability Assay (CTG) was used. […] B16.F10 cells, grown to 85-90% confluency in 150 cm2 flasks (passage <30), were resuspended in media (MEM-alpha, 10% HI-FBS, 1×antibiotic-antimycotic solution) and added to 96-well opaque-clear bottom plates at a concentration of 1500 cells/well in 200 μL/well. The cells were incubated at 37° C. with 5% CO2 for 24 hours. The following day, serial dilutions of 2× concentrated particles and 2× concentrated free drug were made in 12-well reservoirs with media to specified concentrations. The media in the plates was replaced with […], of fresh media and 100 μL of the corresponding serially diluted drug. Three sets of plates were prepared with duplicate treatments. Following 24, 48 and 72 hours of incubation at 37° C. with 5% CO2, the media in the plates was replaced with 100 μL of fresh media and 100 μL of CTG solution, and then incubated for 5 minutes on a plate shaker at room temperature set to 450 rpm and allowed to rest for 15 minutes. Viable cells were measured by luminescence using a microtiter plate reader. The data was plotted as % viability vs. concentration and standardized to untreated cells.

B16.F10 cells [2] = experiment: Efficacy in a murine melanoma model (subcutaneous B16.F10 tumors); assay type: in vivo, male C57BL/6 mice
Description: Animals were monitored for any morbidity and adverse effect three times a week.
Tumor volume was calculated with a (width×width×length)/2 mm^3 formula.

[3] = Tolerability in the murine melanoma model (body weight); assay type: in vivo, male C57BL/6 mice
Description: The treatments were administered IV into the tail vein at a dose volume of 10 mL/kg, beginning on post-implantation day 5, when the mean tumor volume was ca. 60 mm^3. Animals were monitored for any morbidity and adverse effect three times a week. In addition, body weight and tumor volume were also measured three times a week.
Tolerability was determined by changes in body weight, expressed as a percent of the initial body weight on post-implantation day 5. Health monitoring was conducted three times a week to evaluate lethargy, tremors, hypothermia, ataxia, hind limb paralysis etc. The criteria at which a mouse was removed from the study were >20% body weight loss or severe morbidity or hind limb paralysis.

[4] = 15 mg/kg IV, weekly schedule for 3 injections
[5] = 30 mg/kg IV, weekly schedule for 3 injections (study of 1.4, 2.3, 4.2, 5.2)
[6] = 15 mg/kg IV, three injections over 2 weeks (twice per week)
[7] = 30 mg/kg IV, biweekly schedule for 2 injections
[8] = 30 mg/kg IV, weekly schedule for 3 injections (study of 1.5)
[9] = 15 mg/kg IV, three injections over 2 weeks (twice per week), listed as free docetaxel

“CDP-2′-alanine glycolate-docetaxel [CDP-Ala Gly-DTX formulation]” showed an IC50 (B16.F10 cells [1]) of 0.4 to 2 nM.
With “CDP-2′-hexanoate-docetaxel [CDP-Hex-DTX formulation]” the “Tumor growth delay (TGD)” value (B16.F10 cells [2]; mouse, in vivo) was 10 days, the “Tumor growth inhibition (% TGI)” value (B16.F10 cells [2]; mouse, in vivo) was 66% and the “increase in TGD” value (B16.F10 cells [2]; mouse, in vivo) was 53%. It also gave an IC50 (B16.F10 cells [1]) of 325 to 440 nM.
In the case of “CDP-dithiolethyloxy-carbonate-docetaxel [CDP-ethane-S—S-ethane-DTX formulation]”, the “Maximum body weight loss (%)” value [3, 4] is reported as 0%, the “Maximum body weight loss (%)” value [3, 5] is reported as 0% and the “day the mean tumor volume endpoint (≧3000 mm^3) was reached” value (shortened to “day the mean tumor volume endpoint”) (B16.F10 cells [2]; mouse, in vivo) is reported as 21 days and 24 days. The IC50 (B16.F10 cells [1]) was 23 nM.
In the case of “CDP-2′-aminoethoxyethoxy-Docetaxel [CDP-aminoethoxyethoxy-DTX formulation]”, the “Maximum body weight loss (%)” value [3, 4] is reported as 7% and the “Maximum body weight loss (%)” value [3, 5] is reported as 23%.
For “CDP-2′-glycine-docetaxel [CDP-Gly-DTX formulation]”, the IC50 (B16.F10 cells [1]; B16.F10 cells, 72 hours after treatment) was 1.2 to 3.7 nM.
In the case of `CC(=O)O[C@@]12CO[C@@H]1C[C@H](O)[C@@]1(C)C(=O)[C@H](O)C3=C(C)[C@@H](OC(=O)[C@H](O)[C@@H](NC(=O)OC(C)(C)C)c4ccccc4)C[C@@](O)([C@@H](OC(=O)c4ccccc4)[C@H]21)C3(C)C` [Free docetaxel, docetaxel, reference compound], the “Maximum body weight loss (%)” value [3, 6] is reported as 3%, the “Maximum body weight loss (%)” value [3, 4] is reported as 0% and the “Maximum body weight loss (%)” value [3, 7] is reported as 5%. For the same compound, the “Maximum body weight loss (%)” value [3, 5] was 8%, the “Maximum body weight loss (%)” value [3, 8] was 12% and the “Tumor growth delay (TGD)” value (B16.F10 cells [2]; [6]) was 15 days. For the same compound, the “Tumor growth inhibition (% TGI)” value (B16.F10 cells [2]; [6]) was 97%, the “increase in TGD” value (B16.F10 cells [2]; [6]) was 79% and the “Tumor growth inhibition (% TGI)” value (B16.F10 cells [2]; [9]) was 97%. For the same compound, the “day the mean tumor volume endpoint” value (B16.F10 cells [2]; [9]) was 34 days and 35 days, the survival (B16.F10 cells [2]; 15 mg/kg IV, three injections over 2 weeks, day 33) was 50% and the survival (B16.F10 cells [2]; 15 mg/kg IV, three injections over 2 weeks, day 40) was 0%. For the same compound, the “Tumor growth delay (TGD)” value (B16.F10 cells [2]; [4]) was 7 days, the “Tumor growth inhibition (% TGI)” value (B16.F10 cells [2]; [4]) was 68% and the “day the mean tumor volume endpoint” value (B16.F10 cells [2]; [4]) was 26 days. For the same compound, the “increase in TGD” value (B16.F10 cells [2]; [4]) was 37%, the “Tumor growth inhibition (% TGI)” value (B16.F10 cells [2]; 15 mg/kg IV, weekly schedule for 3 injections, listed as free docetaxel) was 68% and the survival (B16.F10 cells [2]; 30 mg/kg IV, biweekly for 2 injections, day 24) was 50%. For the same compound, the survival (B16.F10 cells [2]; 30 mg/kg IV, biweekly for 2 injections, day 31) was 0%, the “Tumor growth delay (TGD)” value (B16.F10 cells [2]; [7]) was 7 days and the “Tumor growth inhibition (% TGI)” value (B16.F10 cells [2]; [7]) was 73%. For the same compound, the “day the mean tumor volume endpoint” value (B16.F10 cells [2]; [7]) was 26 days, the “Tumor growth inhibition (% TGI)” value (B16.F10 cells [2]; 30 mg/kg IV, biweekly schedule for 2 injections, listed as free docetaxel) was 73% and the survival (B16.F10 cells [2]; 30 mg/kg IV, weekly for 3 injections (study of 1.4, 2.3, 5.2), day 29) was 50%. For the same compound, the survival (B16.F10 cells [2]; 30 mg/kg IV, weekly for 3 injections (study of 1.4, 2.3, 5.2), day 38) was 0%, the survival (B16.F10 cells [2]; 30 mg/kg IV, weekly for 3 injections (study of 1.5), day 40) was 50% and the survival (B16.F10 cells [2]; 30 mg/kg IV, weekly for 3 injections (study of 1.5), day 45) was 0%. The “Tumor growth delay (TGD)” value (B16.F10 cells [2]; [5]) was 12 days, the “day the mean tumor volume endpoint” value (B16.F10 cells [2]; [5]) was 31 days and the “increase in TGD” value (B16.F10 cells [2]; [5]) was 63%. The “Tumor growth delay (TGD)” value (B16.F10 cells [2]; [8]) was 21 days, the “day the mean tumor volume endpoint” value (B16.F10 cells [2]; [8]) was 41 days and the “increase in TGD” value (B16.F10 cells [2]; [8]) was 105%. It also gave an IC50 (B16.F10 cells [1]; Mus musculus, B16.F10 cells, 72 hours after treatment) of 0.2 to 2 nM.
